Data from patent US20030065066A1, “Triazine UV absorbers comprising amino resins” (priority 1998, published 2003).

Experiment: Solubility in xylenes
Format: physicochemical
Excerpt: A major advantage of alkoxymethylated melamine triazine UV absorbers of the present invention is not only their improved solubility, but also their improved compatibility with coatings resins compared to the corresponding triazine precursors. For example 2,4-bis(2,4-dimethylphenyl)-6-[2-hydroxy-4-(2-hydroxyethoxy)phenyl]-1,3-5-triazine is only soluble in xylenes to the extent of about 0.5%. […] Therefore Compound A is much easier to dissolve in high solids coating resin formulations than 2,4-bis(2,4-dimethylphenyl)-6-[2-hydroxy-4-(2-hydroxyethoxy)phenyl]-1,3-5-triazine, and overcomes the problem of cratering and poor weatherability of the final coatings due to undissolved UV absorber particles.

xylenes solubility: about 0.5%
Substance: 2,4-bis(2,4-dimethylphenyl)-6-[2-hydroxy-4-(2-hydroxyethoxy)phenyl]-1,3-5-triazine [Compound a]
